From article PMC11779924 (Nature Communications, 2025)

What was measured:
[1] = test system: hypertensive rats with blood clot defect (BCD); assay: Rat BCD model: immunofluorescent staining of CD73&Fak, Runx2, Alp; assay type: in vivo; conditions: BCgel vs Ctrl, n = 6
healthy SD rats = conditions: subcutaneous implantation, n = 6
[2] = test system: beagles with blood clot defect (heparin); assay: Beagle tooth extraction BCD model: coagulation time; assay type: in vivo; conditions: treated immediately after tooth extraction, n = 7
[3] = test system: hypertensive rats with blood clot defect (BCD); assay: Rat incisor extraction BCD model: coagulation time; assay type: in vivo; conditions: treated immediately after tooth extraction, n = 12
BCD rats = conditions: rat, in vivo
beagles = assay: Beagle BCD model: overall toxicity incl. cardiotoxicity and organ H&E
[4] = test system: hypertensive rats with blood clot defect (BCD); assay type: in vivo, rat; conditions: micro-CT
[5] = test system: beagles with blood clot defect (heparin); parameters: species or system beagle; conditions: dog, in vivo

## (RADA)4GSVLGYIQIR [BCgel]
[1]; one-month post-treatment
  increase in CD73+&Fak+ double positive cells: 15 fold
[1]; one-week post-treatment
  increase in CD73+&Fak+ double positive cells: 31 fold
Healthy SD rats
  hematological parameters: nor did they have any impact on hematological parameters
  hepatic or renal function: neither BCgel nor gelform induced any hepatic or renal abnormalities
[2]
  reduction in coagulation time vs gelform (Ctrl): 69%
[3]
  reduction in coagulation time compared to gelform: 55%
BCD rats
  increase in bone mineral density (BMD): 39%
  reduction in trabecular separation (Tb.Sp): 50%
beagles; BCgel for two months, n = 4
  immunotoxicity, hematotoxicity, hepatotoxicity, nephrotoxicity, cardiotoxicity: did not result in any observed immunotoxicity
beagles; five months after tooth extraction, n = 3
  physiological toxicity (hematotoxicity, hepatotoxicity, nephrotoxicity, cardiotoxicity): no signs of physiological toxicity
[4]; 0.5% BCgel vs gelform (Ctrl), n = 3
  osteogenic effects of mechanically unloaded BCgel: negligible osteogenic effects
[4]; 1 week post-treatment, n = 6
  decrease in Tb.Sp compared to the Ctrl group: 47%
  increase in BMD compared to the Ctrl group: 73%
  increase in BV/TV compared to the Ctrl group: 84%
[5]
  elevation in Tb.N compared to the Ctrl group: 56%
  enhancement in BMD compared to the Ctrl group: 105%
  increase in BV/TV compared to the Ctrl group: 143%
  reduction in Tb.Sp compared to the Ctrl group: 60%
